Seven compounds from ChEMBL document CHEMBL1134164, “Antifungal activity of octyl gallate: structural criteria and mode of action” (2001) can be followed below.

Each structure is given as a SMILES string. Converted amounts (≈) assume the structure as drawn. The source made the active and inactive calls.

Assay [1] has as its system Saccharomyces cerevisiae. Nature of the assay: Minimum fungicidal concentration against Saccharomyces cerevisiae. The format is functional.
For assay [2], the system named is Saccharomyces cerevisiae. Nature of the assay: Minimum fungicidal concentration against Saccharomyces cerevisiae (Inactive). The format is functional, organism-based.
The test system of assay [3] is Bacillus subtilis. Nature of the assay: Antimicrobial activity against Bacillus subtilis was determined. The format is functional.
Assay [4] concerns Streptococcus mutans. The experiment in a line: Antimicrobial activity against Streptococcus mutans was determined. The class given is functional.
Assay [5] deals with Candida albicans. Nature of the assay: Inhibitory activity against Candida albicans was determined. The class given is functional.
Assay [6] deals with Klebsiella aerogenes. Nature of the assay: Antimicrobial activity against Enterobacter aerogenes was determined. The class given is functional.
The test system of assay [7] is Pseudomonas aeruginosa. The experiment in a line: Antimicrobial activity against Pseudomonas aeruginosa was determined. The format is functional.
For assay [8], the system named is Staphylococcus aureus. Nature of the assay: Inhibitory activity against Staphylococcus aureus was determined.
Assay [9] has as its system Streptococcus mutans. Nature of the assay: Inhibitory activity against Streptococcus mutans was determined.
Assay [10] relates to Escherichia coli. Nature of the assay: Inhibitory activity against Escherichia coli was determined.
In assay [11] the test system is Proteus vulgaris. Nature of the assay: Inhibitory activity against Proteus vulgaris was determined. The format is functional.
The subject of assay [12] is Cutibacterium acnes. The experiment in a line: Antimicrobial activity against Propionibacterium acnes was determined. The class given is functional.
The test system of assay [13] is Saccharomyces cerevisiae. Nature of the assay: Inhibitory activity against Saccharomyces cerevisiae was determined. The class given is functional.
Assay [14] concerns Micrococcus luteus. Nature of the assay: Inhibitory activity against Micrococcus luteus was determined.
Assay [15] concerns Salmonella enterica. The experiment in a line: Antimicrobial activity against Salmonella choleraesuis was determined. The format is functional.
Assay [16] concerns Staphylococcus aureus. Nature of the assay: Antimicrobial activity against Staphylococcus aureus was determined. The format is functional.
For assay [17], the system named is Corynebacterium ammoniagenes. The experiment in a line: Inhibitory activity against Brevibacterium ammoniagenes was determined.
Assay [18] has as its system Pseudomonas aeruginosa. Nature of the assay: Inhibitory activity against Pseudomonas aeruginosa was determined. The class given is functional.
Assay [19] has as its system Aspergillus niger. The experiment in a line: Inhibitory activity against Aspergillus niger was determined. The format is functional.
Assay [20] relates to Escherichia coli. Nature of the assay: Antimicrobial activity against Escherichia coli was determined. The format is functional.
The test system of assay [21] is Micrococcus luteus. Nature of the assay: Antimicrobial activity against Micrococcus luteus was determined. The class given is functional.
Assay [22] relates to Zygosaccharomyces bailii. The experiment in a line: Antifungicidal activity against Zygosaccharomyces bailii was determined. The format is functional.
The subject of assay [23] is Saccharomyces cerevisiae. The experiment in a line: Antifungicidal activity against Saccharomyces cerevisiae was determined. The format is functional.
Assay [24] relates to Aspergillus niger. The experiment in a line: Antifungicidal activity against Aspergillus niger was determined. The class given is functional.
Assay [25] has as its system Proteus vulgaris. The experiment in a line: Antimicrobial activity against Proteus vulgaris was determined. The class given is functional.
Assay [26] concerns Klebsiella aerogenes. Nature of the assay: Inhibitory activity against Enterobacter aerogenes was determined.
Assay [27] relates to Corynebacterium ammoniagenes. Nature of the assay: Antimicrobial activity against Brevibacterium ammoniagenes was determined. The format is functional.
Assay [28] concerns Candida albicans. The experiment in a line: Antifungicidal activity against Candida albicans was determined. The format is functional.
The subject of assay [29] is Zygosaccharomyces bailii. The experiment in a line: Inhibitory activity against Zygosaccharomyces bailii was determined. The format is functional.
Assay [30] relates to Staphylococcus aureus. Nature of the assay: Antimicrobial activity against Staphylococcus aureus (MRSA) was determined. The format is functional.
The subject of assay [31] is Staphylococcus aureus. The experiment in a line: Inhibitory activity against Staphylococcus aureus (MRSA) was determined. The format is functional.
For assay [32], the system named is Cutibacterium acnes. The experiment in a line: Inhibitory activity against Propionibacterium acnes was determined. The class given is functional.
The subject of assay [33] is Klebsiella aerogenes. The experiment in a line: Inhibitory activity against Enterobacter aerogenes was determined. The class given is functional.
Assay [34] has as its system Corynebacterium ammoniagenes. The experiment in a line: Inhibitory activity against Brevibacterium ammoniagenes was determined. The class given is functional.
The subject of assay [35] is Streptococcus mutans. The experiment in a line: Inhibitory activity against Streptococcus mutans was determined. The class given is functional.
The subject of assay [36] is Micrococcus luteus. Nature of the assay: Inhibitory activity against Micrococcus luteus was determined. The class given is functional.
Assay [37] concerns Escherichia coli. Nature of the assay: Inhibitory activity against Escherichia coli was determined. The class given is functional.
Assay [38] has as its system Staphylococcus aureus. Nature of the assay: Inhibitory activity against Staphylococcus aureus was determined. The format is functional.

Take `CCCCCCCOC(=O)/C=C/c1ccc(O)c(O)c1`: in assay [1], the MFC was determined as 50 µg/mL (≈ 180 µM).
Take `CCCCCCCCCC(=O)Oc1ccc(O)c(O)c1`: the MFC in assay [1] came out at 50 µg/mL (≈ 178 µM).
Take `CCCCCCCCOC(=O)c1cccc(O)c1O`: the MIC entry in [2] is “inactive”.
As for `CCCCCCCCCCCCOC(=O)c1cc(O)c(O)c(O)c1` [DODECYL GALLATE], the MBC was 25 µg/mL (≈ 73.9 µM) in [3]; 100 µg/mL (≈ 295 µM) in assay [4]; over 800 µg/mL in assay [6]; over 800 µg/mL in assay [7]; 6.25 µg/mL (≈ 18.5 µM) in [12]; 50 µg/mL (≈ 148 µM) in [15]. Besides, the MBC in assay [16] is 25 µg/mL (≈ 73.9 µM); in assay [20], over 800 µg/mL; in assay [21], 25 µg/mL (≈ 73.9 µM); in [25], over 800 µg/mL; in [27] it was 25 µg/mL (≈ 73.9 µM); in assay [30], 25 µg/mL (≈ 73.9 µM). The MFC was over 400 µg/mL in assay [5]; over 1600 µg/mL in [13]; over 400 µg/mL in [19]; over 1600 µg/mL in assay [22]; over 1600 µg/mL in assay [23]; over 400 µg/mL in assay [24]. Moreover, the MFC in assay [28] was over 400 µg/mL. Moreover, the MIC is 12.5 µg/mL (≈ 36.9 µM) in assay [8]; 100 µg/mL (≈ 295 µM) in [9]; over 800 µg/mL in [10]; over 800 µg/mL in assay [11]; 12.5 µg/mL (≈ 36.9 µM) in assay [14]; 12.5 µg/mL (≈ 36.9 µM) in assay [17]. Also, the MIC in assay [18] is over 800 µg/mL; in assay [26], over 800 µg/mL; in [29] it was over 1600 µg/mL; in assay [31], 12.5 µg/mL (≈ 36.9 µM); in assay [32], 6.25 µg/mL (≈ 18.5 µM).
For the compound `CC(C)=CCC/C(C)=C/COC(=O)c1cc(O)c(O)c(O)c1` [Geranyl gallate], the MFC in assay [1] worked out at 50 µg/mL (≈ 163 µM).
For `CCCCCCCCOC(=O)c1cc(O)c(O)c(O)c1` [OCTYL_GALLATE], the MBC in [3] was 25 µg/mL (≈ 88.5 µM); in assay [4], 50 µg/mL (≈ 177 µM); in assay [6], over 800 µg/mL; in assay [7], over 800 µg/mL; in [12] it was 25 µg/mL (≈ 88.5 µM); in assay [15], 12.5 µg/mL (≈ 44.3 µM). Moreover, the MBC was 50 µg/mL (≈ 177 µM) in assay [16]; over 800 µg/mL in assay [20]; 25 µg/mL (≈ 88.5 µM) in [21]; 50 µg/mL (≈ 177 µM) in assay [25]; 50 µg/mL (≈ 177 µM) in assay [27]; 50 µg/mL (≈ 177 µM) in assay [30]. The MIC in [33] is over 800 µg/mL; in assay [34], 25 µg/mL (≈ 88.5 µM); in assay [35] it was 50 µg/mL (≈ 177 µM); in assay [36], 12.5 µg/mL (≈ 44.3 µM); in [11], 25 µg/mL (≈ 88.5 µM); in assay [37], over 800 µg/mL. Besides, the MIC in assay [18] is over 800 µg/mL; in assay [38] it was 25 µg/mL (≈ 88.5 µM); in assay [29], 50 µg/mL (≈ 177 µM); in assay [31] it was 25 µg/mL (≈ 88.5 µM); in assay [32], 25 µg/mL (≈ 88.5 µM). The MFC in assay [5] turned out to be 25 µg/mL (≈ 88.5 µM); in assay [13], 25 µg/mL (≈ 88.5 µM); in [19] it was 50 µg/mL (≈ 177 µM); in assay [22], 50 µg/mL (≈ 177 µM); in assay [23], 25 µg/mL (≈ 88.5 µM); in assay [24], 100 µg/mL (≈ 354 µM). Also, the MFC in assay [28] was determined as 25 µg/mL (≈ 88.5 µM).
Regarding `CCCOC(=O)c1cc(O)c(O)c(O)c1` [PROPYL GALLATE], the MBC in assay [3] is 1600 µg/mL (≈ 7540 µM); in [4] it was 800 µg/mL (≈ 3770 µM); in assay [6] it was over 3200 µg/mL; in [7], over 3200 µg/mL; in [12] it was 800 µg/mL (≈ 3770 µM); in assay [15], over 3200 µg/mL. For the same compound, the MBC in assay [16] was 3200 µg/mL (≈ 15100 µM); in assay [20], 1600 µg/mL (≈ 7540 µM); in assay [21] it was 3200 µg/mL (≈ 15100 µM); in [25], 400 µg/mL (≈ 1890 µM); in [27], 3200 µg/mL (≈ 15100 µM); in [30], 3200 µg/mL (≈ 15100 µM). Also, the MIC in assay [33] amounted to 3200 µg/mL (≈ 15100 µM); in [34] it was 1600 µg/mL (≈ 7540 µM); in [35], 400 µg/mL (≈ 1890 µM); in assay [36], 1600 µg/mL (≈ 7540 µM); in assay [11], 400 µg/mL (≈ 1890 µM); in assay [37] it was 1600 µg/mL (≈ 7540 µM). Further, the MIC in [18] is 3200 µg/mL (≈ 15100 µM); in assay [38], 1600 µg/mL (≈ 7540 µM); in assay [29] it was over 3200 µg/mL; in [31] it was 1600 µg/mL (≈ 7540 µM); in assay [32], 800 µg/mL (≈ 3770 µM). Also, the MFC in assay [5] is 3200 µg/mL (≈ 15100 µM); in assay [13], 3200 µg/mL (≈ 15100 µM); in assay [19] it was over 3200 µg/mL; in assay [22], over 3200 µg/mL; in [23], over 3200 µg/mL; in assay [24] it was over 3200 µg/mL. In addition, the MFC in assay [28] was over 3200 µg/mL.

A word on the MIC: it is the least concentration at which growth counts as inhibited. In general, MBC refers to the lowest tested concentration that kills the bacteria rather than only halting them.
